Measured values: US20100297073A1, “HETEROCYCLIC ANTIVIRAL COMPOUNDS” (priority 2009, published 2010)

Columns and labels:
[1] = target: T1, HCV polymerase (NS5B570n-Con1) (Hepatitis C virus genotype 1b, UniProt Q9WMX2); assay: biochemical; parameters: species or system HCV Con1 strain
T1 construct: contains a 21 amino acid deletion at the C-terminus relative to the full-length HCV polymerase; 6-histidine (N); made in house; host or cells: E. coli BL21(DE) pLysS, plasmid pET17b
Experimental: HCV NS5B RNA Polymerase Activity
The enzymatic activity of HCV polymerase (NS5B570n-Con1) was measured as the incorporation of radiolabeled nucleotide monophosphates into acid insoluble RNA products. Unincorporated radiolabeled substrate was removed by filtration and scintillant was added to the washed and dried filter plate containing radiolabeled RNA product. The amount of RNA product generated by NS5B570-Con1 at the end of the reaction was directly proportional to the amount of light emitted by the scintillant.
The N-terminal 6-histidine tagged HCV polymerase, derived from HCV Con1 strain, genotype 1b (NS5B570n-Con1) contains a 21 amino acid deletion at the C-terminus relative to the full-length HCV polymerase and was purified from E. coli strain BL21(DE) pLysS. The construct, containing the coding sequence of HCV NS5B Con1 (GenBank accession number AJ242654) was inserted into the plasmid construct pET17b, downstream of a T7 promoter expression cassette and transformed into E. coli. A single colony was grown overnight as a starter culture and later used inoculate 10 L of LB media supplemented with 100 μg/mL ampicillin at 37° C. Protein expression was induced by the addition of 0.25 mM isopropyl-β-D-thiogalactopyranoside (IPTG) when optical density at […] of the culture was between 0.6 and 0.8 and cells were harvested after 16 to 18 h at 30° C. NS5B570n-Con1 was purified to homogeneity using a three-step protocol including subsequent column chromatography on Ni-NTA, SP-Sepharose HP and Superdex 75 resins.
Data was analyzed in Excel® (Microsoft®) and ActivityBase® (idbs®). The reaction in the absence of enzyme was used to determine the background signal, which was subtracted from the enzymatic reactions. […] All data was expressed as a percentage of the positive control.
the data where “Y” corresponds to the relative enzyme activity (in %), “% Min” is the residual relative activity at saturating compound concentration, “% Max” is the relative maximum enzymatic activity, “X” corresponds to the compound concentration, and “S” is the Hill coefficient (or slope).

[2] = test system: genotype 1b HCV replicon in Huh7 cell line 2209-23; assay: HCV replicon assay (Renilla luciferase reporter); format: cell-based; conditions: Hepatitis C virus, Huh-7, 72 h; 2209-23 cells, three days incubation, luciferase readout
in vitro = conditions: human
HCV = conditions: cited from earlier work

COc1c(-c2cc3ccccc3c(=O)[nH]2)cc(-c2ccc[nH]c2=O)cc1C(C)(C)C
melting point: 138 to 140 °C

COc1ccc(-c2cc(-c3cc4ccc(NS(C)(=O)=O)cc4c(=O)o3)c(OC)c(C(C)(C)C)c2)c(=O)[nH]1
melting point: 231 to 233 °C

COc1c(-c2cc(=O)c3cc(NS(C)(=O)=O)ccc3o2)cc(-c2ccc[nH]c2=O)cc1C(C)(C)C [Compound I-1, N-{2-[3-tert-Butyl-2-methoxy-5-(2-oxo-1,2-dihydro-pyridin-3-yl)-phenyl]-4-oxo-4H-chromen-6-yl}-methanesulfonamide]
IC50 [1]: 3 nM | melting point: > 300 °C

COc1c(C2=CCc3cc(NS(C)(=O)=O)ccc3O2)cc(-c2ccc[nH]c2=O)cc1C(C)(C)C [Compound I-2, N-{2-[3-tert-Butyl-2-methoxy-5-(2-oxo-1,2-dihydro-pyridin-3-yl)-phenyl]-4H-chromen-6-yl}-methanesulfonamide]
IC50 [1]: 14 nM

COc1c(C2CCc3cc(NS(C)(=O)=O)ccc3O2)cc(-c2ccc[nH]c2=O)cc1C(C)(C)C (centres unmarked) [Compound I-3, N-{2-[3-tert-Butyl-2-methoxy-5-(2-oxo-1,2-dihydro-pyridin-3-yl)-phenyl]-chroman-6-yl}-methanesulfonamide]
IC50 [1]: 1 nM

CC(C)(C)c1cc(-c2cc3ccc(NS(C)(=O)=O)cc3c(=O)o2)cc(-c2ccc[nH]c2=O)c1 [Compound I-5, N-{3-[3-tert-Butyl-5-(2-oxo-1,2-dihydro-pyridin-3-yl)-phenyl]-1-oxo-1H-isochromen-7-yl}-methanesulfonamide]
IC50 [1]: 9 nM | melting point: > 300 °C

COc1c(-c2cc3ccc(NS(C)(=O)=O)cc3c(=O)o2)cc(-c2cc(F)c[nH]c2=O)cc1C(C)(C)C [Compound I-6, N-{3-[3-tert-Butyl-5-(5-fluoro-2-oxo-1,2-dihydro-pyridin-3-yl)-2-methoxy-phenyl]-1-oxo-1H-isochromen-7-yl}-methanesulfonamide]
IC50 [1]: 3 nM | melting point: 295 to 297 °C

COc1c(-c2cc3ccccc3c(=O)o2)cc(-c2ccc[nH]c2=O)cc1C(C)(C)C [Compound I-7, 3-[3-tert-Butyl-4-methoxy-5-(1-oxo-1H-isochromen-3-yl)-phenyl]-1H-pyridin-2-one]
IC50 [1]: 2 nM | melting point: 253 to 255 °C

COc1c(C2Cc3ccc(NS(C)(=O)=O)cc3C(=O)O2)cc(-c2ccc[nH]c2=O)cc1C(C)(C)C (centres unmarked) [Compound I-9, N-{3-[3-tert-Butyl-2-methoxy-5-(2-oxo-1,2-dihydro-pyridin-3-yl)-phenyl]-1-oxo-isochroman-7-yl}-methanesulfonamide]
IC50 [1]: 6 nM

COc1c(C2Cc3ccc(NS(C)(=O)=O)cc3CO2)cc(-c2ccc[nH]c2=O)cc1C(C)(C)C (centres unmarked) [Compound I-10, N-{3-[3-tert-Butyl-2-methoxy-5-(2-oxo-1,2-dihydro-pyridin-3-yl)-phenyl]-isochroman-7-yl}-methanesulfonamide]
IC50 [1]: 1 nM | melting point: 170 to 175 °C

COc1c(-c2cc3ccc(NS(C)(=O)=O)cc3c(=O)[nH]2)cc(-c2ccc[nH]c2=O)cc1C(C)(C)C [Compound I-11, N-{3-[3-tert-Butyl-2-methoxy-5-(2-oxo-1,2-dihydro-pyridin-3-yl)-phenyl]-1-oxo-1,2-dihydro-isoquinolin-7-yl}-methanesulfonamide]
IC50 [1]: 4 nM | IC50 [2]: 1 nM | melting point: 252 to 254 °C | CC50 (in vitro): 42600 nM

COc1c(-c2nc3ccc(NS(C)(=O)=O)cc3c(=O)[nH]2)cc(-c2ccc[nH]c2=O)cc1C(C)(C)C [Compound I-13, N-{2-[3-tert-Butyl-2-methoxy-5-(2-oxo-1,2-dihydro-pyridin-3-yl)-phenyl]-4-oxo-3,4-dihydro-quinazolin-6-yl}-methanesulfonamide]
IC50 [1]: 9 nM | melting point: 228 to 230 °C

COc1c(-c2cc3ccc(NS(C)(=O)=O)cc3c(=O)o2)cc(-c2c[nH]c(=O)[nH]c2=O)cc1C(C)(C)C [Compound I-14, N-{3-[3-tert-Butyl-5-(2,4-dioxo-1,2,3,4-tetrahydro-pyrimidin-5-yl)-2-methoxy-phenyl]-1-oxo-1H-isochromen-7-yl}-methanesulfonamide]
IC50 [1]: 1 nM | melting point: > 300 °C

COc1c(-c2cc3ccc(NS(C)(=O)=O)cc3c(=O)o2)cc(-c2cc(F)c[nH]c2=O)cc1C1(C(F)F)CC1 [Compound I-15]
IC50 [1]: 0.2 nM

NC(=O)c1ncn([C@@H]2O[C@H](CO)[C@@H](O)[C@H]2O)n1 [Ribavirin, 1-((2R,3R,4S,5R)-3,4-Dihydroxy-5-hydroxymethyl-tetrahydro-furan-2-yl)-1H-[1,2,4]triazole-3-carboxylic acid amide]
effect on serum levels of HCV-RNA (HCV; monotherapy / sole treatment): does not lower serum levels of HCV-RNA | patients with serum amino transferase levels reduced to normal (HCV; monotherapy): 40%
